Reference: EP0508425A1, “Bicyclic amides as inhibitors of acyl-coenzyme a: cholesterol acyl transferase” (SCHERING CORPORATION, priority 1991, dated 1992)

Assays:
Hyperlipidemic Hamster = assay: In Vivo Assay of Hypolipidemic Agents Using the Hyperlipidemic Hamster; set-up: species or system Hamsters; conditions: oral gavage once daily, seven days, versus control
Experimental: In Vivo Assay of Hypolipidemic Agents Using the Hyperlipidemic Hamster
Hamsters are separated into groups of six and given a control cholesterol diet (Purina Chow #5001 containing 0.5% cholesterol) for seven days. Diet consumption is monitored to determine dietary cholesterol exposure in the face of test compounds. The animals are dosed with the test compound once daily beginning with the initiaton of diet. Dosing is by oral gavage of 0.2 mL of corn oil alone (control group) or solution (or suspension) of test compound in corn oil. All animals moribund or in poor physical condition are euthanized. After seven days, the animals are anesthetized by IM injection of ketamine and sacrificed by decapitation. Blood is collected into vacutainer tubes containing EDTA for plasma lipid analysis and the liver excised for tissue lipid analysis. Data is reported as percent reduction of lipid versus control.

ACAT = ACAT Assay (in vitro); type: biochemical; conditions: 10 µM test compound; rat liver microsomes
Experimental: This assay measures the activity of ACAT by measuring the ACAT-mediated transfer of tritiated oleic acid from acyl-CoA to cholesterol to give labelled cholesterol oleate. Rat liver microsomes are used as the source of ACAT. Assays are performed in round bottom microtiterplates using a total incubation volume of 50 µL. Each incubation well receives 10 µl assay buffer (0.5M KHPO₄, 10 µM dithiothreitol, pH 7.4), 7.5 µL of 40 mg/mL BSA (Bovine Serum Albumin) and 12.5 µg of microsomal protein. The test compound (in sufficient amount to bring the final concentration to from 0.1 to 25 µM), reference compound, or vehicle control is added and the final volume brought to 47 µL. The microtiterplate is then floated on the surface of a 37°C water bath for fifteen minutes. Incubations are started by the addition of 3 µL ³H-acyl CoA (1µCi/well, final concentration of 10 µM acyl CoA). The plate is then returned to the water bath for 15 minutes. The incubations are then terminated by application of 15 µL from each incubation to individual lanes on a thin layer plate (Silica Gel GF 20 x 20 cm). Standards are applied to several lanes so that the cholesterol ester band can be identified. After drying, the plates are eluted with 90:10:1 petroleum ether:ether:HOAc. The standards are visualized via iodine vapor, and the regions corresponding to cholesterol ester are scraped into 7 mL scintillation vials. 4 mL of scintillant are added to each vial, and the radioactivity quantified. Background count is determined by the boiled controls. Full activity is determined by activity in the presence of vehicle. The percent inhibition is calculated by subtracting the background from both control and test samples, and the test value is calculated as a percentage of the control. For IC₅₀ determinations, the inhibition is plotted against drug doses on a log scale and the concentration at which 50% inhibition is obtained is determined.

SMILES | % Reduction in cholesteryl esters (dose in mpk) (Hyperlipidemic Hamster; dose 50 mpk) | ACAT % Inhibition dose = 10 µM (ACAT) [%] | % Reduction in cholesteryl esters (dose in mpk) (Hyperlipidemic Hamster; dose 10 mpk) | % Reduction in cholesteryl esters (dose in mpk) (Hyperlipidemic Hamster; dose 25 mpk) [%]
COc1ccc([C@H]2CCc3ccccc3[C@H]2NC(=O)C(c2ccccc2)c2ccccc2)cc1 (relative stereo) [Example 1, cis-N-[-2-(4'-methoxyphenyl)-1,2,3,4-tetrahydronaphthalen-1-yl]-α-phenylbenzeneacetamide] | 0 (50) % |  |  | 
COc1ccc([C@H]2Cc3ccccc3[C@H]2NC(=O)C(c2ccccc2)c2ccccc2)cc1 (relative stereo) [Example 2, cis-N-[2-(4'-methoxyphenyl)indanyl]-α-phenylbenzeneacetamide] | -17 (50) % | 96 |  | 
O=C(N[C@@H]1c2ccccc2C[C@@H]1c1ccc(O)cc1)C(c1ccccc1)c1ccccc1 (relative stereo) [Example 3, cis-N-[2-(4'-hydroxyphenyl)indanyl]-α-phenylbenzeneacetamide] | -89% | 99 | -71% | -87.5
CCCCCCCC/C=C\CCCCCCCC(=O)N[C@@H]1c2ccccc2CC[C@H]1c1ccc(O)cc1 (relative stereo) [Example 4, trans-N-[2-(4'-hydroxyphenyl)-1,2,3,4-tetrahydronaphth-1-yl]oleamide] | 0 (50) % | 94 |  | 
Nc1ccc([C@@H]2Cc3ccccc3[C@H]2NC(=O)C(c2ccccc2)c2ccccc2)cc1 (relative stereo) [Example 5, trans-N-[2-(4'-aminophenyl)indanyl]-α-phenylbenzeneacetamide] |  | 94 |  | 
Nc1cccc([C@H]2Cc3ccccc3[C@H]2NC(=O)C(c2ccccc2)c2ccccc2)c1 (relative stereo) [Example 5A, cis-N-[2-(3'-aminophenyl)-indanyl]-α-phenylbenzeneacetamide] |  | 95 | 0 (10) % | 
COc1ccc([C@@H]2CCc3ccccc3[C@H]2NC(=O)N(c2ccccc2)c2ccccc2)cc1 (relative stereo) [Example 6, trans-N'-[2-(4'-methoxyphenyl)-1,2,3,4-tetrahydronaphthalen-1-yl]-N,N-diphenylurea] | -16 (50) % | 97 |  | 
O=C(N[C@@H]1c2ccccc2C[C@@H]1c1ccc(O)c(Br)c1)C(c1ccccc1)c1ccccc1 (relative stereo) [Example 7, (+)-cis-N-[2-(3'-bromo-4'-hydroxyphenyl)indanyl]-α-phenylbenzeneacetamide] | -40 (50) % | 100 |  | 
O=C(N[C@@H]1c2ccccc2C[C@@H]1c1ccc(O)c(Cl)c1)C(c1ccccc1)c1ccccc1 (relative stereo) [Example 8, cis-N-[2-(3'-chloro-4'-hydroxyphenyl)-indanyl]-α-phenylbenzeneacetamide] | -40 (50) % | 99 |  | 
O=C(N[C@@H]1c2ccccc2C[C@@H]1c1cc(Cl)c(O)c(Cl)c1)C(c1ccccc1)c1ccccc1 (relative stereo) [Example 8A, cis-N-[2-(3',5'-dichloro-4'-hydroxyphenyl)indanyl]-α-phenylbenzeneacetamide] | -14 (50) % | 99 |  | 
Cc1cc([C@H]2Cc3ccccc3[C@H]2NC(=O)C(c2ccccc2)c2ccccc2)ccc1O (relative stereo) [Example 9, (+)-cis-N-[2-[4'-hydroxy-3'-methylphenyl)indanyl]-α-phenylbenzeneacetamide] | -66 (50) % | 98 |  | 
Cc1cc([C@H]2Cc3ccccc3[C@H]2NC(=O)C(c2ccccc2)c2ccccc2)cc(C)c1O (relative stereo) [Example 9A, (+)-cis-N-[2-(3',5'-dimethyl-4'-hydroxyphenyl)indanyl]-α-phenylbenzeneacetamide] | -60 (50) % | 97 |  | 
